# Assays:
# [1] = tested on: KB-VIN multidrug-resistant human cancer cell line; assay: In vitro cytotoxicity; type: cell-based
# [2] = tested on: P-388 murine leukemia cells; conditions: in vitro; cited from earlier work
# [3] = tested on: KB nasopharyngeal human cancer cell line; assay: In vitro cytotoxicity; type: cell-based; conditions: KB cells (value in parentheses)
compound,measurement,setting,value
"C=C(CC[C@@H](C)[C@H]1CC[C@H]2C3=C(C(=O)C[C@]12C)[C@@]1(C)CCC(=O)[C@@H](C)[C@@H]1C[C@@H]3O)C(C)C(=O)OC (stereo partly drawn) [Compound 6, methyl 7β-hydroxy-3,11-dioxo-4α-methylergosta-8,24(28)-dien-26-oate]",substrate of P-glycoprotein (P-gp),[1]; inferred from lack of cross-resistance shown by KB-VIN,not substrates of P-glycoprotein
"C=C(CC[C@@H](C)[C@H]1CC[C@H]2C3=C(C(=O)[C@H](O)[C@]12C)[C@@]1(C)CC[C@@H](O)[C@@H](C)[C@@H]1CC3=O)C(C)C(=O)O (stereo partly shown) [Compound 13, zhankuic acid C]",cytotoxicity against P-388 murine leukemia cells,[2],significant cytotoxicity
"COc1cc([C@@H]2c3cc4c(cc3[C@@H](O[C@@H]3O[C@@H]5CO[C@@H](C)O[C@H]5[C@H](O)[C@H]3O)[C@H]3COC(=O)[C@H]23)OCO4)cc(OC)c1O [etoposide, reference compound]",activity in KB-VIN relative to KB (cross-resistance),[1]; KB-VIN versus KB,at least eight-fold less active
"C=C(CC[C@@H](C)[C@H]1CC[C@H]2C3=C(C(=O)C[C@]12C)[C@@]1(C)CCC(=O)[C@@H](C)[C@@H]1CC3=O)C(C)C(=O)O (stereo partly shown) [Compound 11, zhankuic acid A]",cytotoxicity against P-388 murine leukemia cells,[2],significant cytotoxicity
eburicol [Compound 19],"% inhibition at 20 μM, KB-VIN","[1]; 20 μM, KB-VIN cells (value in parentheses)",18%
same,"% inhibition at 20 μM, KB",[3],34%
"C=C(CC[C@@H](C)[C@H]1CC[C@@]2(O)C3=C(C(=O)C[C@]12C)[C@@]1(C)CCC(=O)[C@@H](C)C1C[C@@H]3O)C(C)C(=O)O (stereo partly drawn) [Compound 4, 7β,14α-dihydroxy-3,11-dioxo-4α-methylergosta-8,24(28)-dien-26-oic acid]",substrate of P-glycoprotein (P-gp),[1]; not told,not substrates of P-glycoprotein

# From PMC2993773 (Journal of natural products, 2010)
